From ChEMBL document CHEMBL1201862, “PubChem BioAssay data set” (2004)
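Grown in 96-well plates, cells were treated for 48 hours with each compound at five concentrations. Insufficient inhibition: endpoint recorded as highest concentration tested. GI50 = concentration required for 50% inhibition of growth.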 Calls of active or inactive are those of the source. Cut-off read from the data, not from the text of the source: active = GI50 up to about 1.1 µM and inactive = higher.

Key:
Test in all cases: NCI-60 cell line screen, 48 h
SF-295 = tested on: SF-295
SK-OV-3 = tested on: SK-OV-3
M14 = tested on: M14
TK-10 = tested on: TK-10
786-0 = tested on: 786-0
KM12 = tested on: KM12
MOLT-4 = tested on: MOLT-4
IGROV-1 = tested on: IGROV-1
ACHN = tested on: ACHN
MDA-MB-231 = tested on: MDA-MB-231
OVCAR-4 = tested on: OVCAR-4
SK-MEL-2 = tested on: SK-MEL-2
NCI-H460 = tested on: NCI-H460
K562 = tested on: K562
DLD-1 = tested on: DLD-1
SN12C = tested on: SN12C
NCI-H23 = tested on: NCI-H23
SK-MEL-5 = tested on: SK-MEL-5
OVCAR-5 = tested on: OVCAR-5
PC-3 = tested on: PC-3
T47D = tested on: T47D
SF-268 = tested on: SF-268
LOX IMVI = tested on: LOX IMVI
HT-29 = tested on: HT-29
HCT-15 = tested on: HCT-15
UACC-257 = tested on: UACC-257
HL-60 = tested on: HL-60
MDA-MB-435 = tested on: MDA-MB-435
BT-549 = tested on: BT-549
HOP-18 = tested on: HOP-18
NCI-H522 = tested on: NCI-H522
M19-MEL = tested on: M19-MEL
UO-31 = tested on: UO-31
SNB-75 = tested on: SNB-75
SK-MEL-28 = tested on: SK-MEL-28
RXF 393 = tested on: RXF 393
OVCAR-3 = tested on: OVCAR-3
CAKI-1 = tested on: CAKI-1
OVCAR-8 = tested on: OVCAR-8
MCF7 = tested on: MCF7
MDA-N = tested on: MDA-N
HCT-116 = tested on: HCT-116
SW-620 = tested on: SW-620
COLO 205 = tested on: COLO 205
A498 = tested on: A498
CCRF-CEM = tested on: CCRF-CEM
DMS-114 = tested on: DMS-114
RPMI-8226 = tested on: RPMI-8226
DU-145 = tested on: DU-145
U-251 = tested on: U-251
UACC-62 = tested on: UACC-62
SNB-19 = tested on: SNB-19
SF-539 = tested on: SF-539
SNB-78 = tested on: SNB-78
SR = tested on: SR
A549 = tested on: A549
EKVX = tested on: EKVX
NCI/ADR-RES = tested on: NCI/ADR-RES
NCI-H226 = tested on: NCI-H226
HOP-62 = tested on: HOP-62
LXFL 529 = tested on: LXFL 529
HCC 2998 = tested on: HCC 2998
Malme-3M = tested on: Malme-3M
HOP-92 = tested on: HOP-92
KM-20L2 = tested on: KM-20L2
Hs-578T = tested on: Hs-578T

Measured: GI50

CN(C)CCCNc1ccc2nnn3c4ccc(O)cc4c(=O)c1c23
active: MOLT-4 0.2 µM | NCI-H460 0.453 µM | RXF 393 0.149 µM | SR 0.193 µM | A549 0.358 µM
inactive: SF-295 4.37 µM | SK-OV-3 5.6 µM | M14 7.89 µM | TK-10 4.67 µM | 786-0 2.86 µM | KM12 1.68 µM | IGROV-1 1.92 µM | ACHN 1.26 µM | MDA-MB-231 10.7 µM | OVCAR-4 4.54 µM | SK-MEL-2 12.7 µM | K562 7.26 µM | DLD-1 1.42 µM | SN12C 2.95 µM | NCI-H23 3.56 µM | SK-MEL-5 5.73 µM | OVCAR-5 9.98 µM | PC-3 2.84 µM | T47D 21 µM | SF-268 2.88 µM | LOX IMVI 1.16 µM | HT-29 2.74 µM | UACC-257 15.8 µM | HL-60 3.72 µM | MDA-MB-435 8.22 µM | BT-549 18.8 µM | HOP-18 9.06 µM | NCI-H522 3.7 µM | M19-MEL 12.6 µM | UO-31 2.06 µM | SNB-75 3.37 µM | SK-MEL-28 6.52 µM | OVCAR-3 9.02 µM | CAKI-1 1.64 µM | OVCAR-8 1.5 µM | MCF7 5.7 µM | MDA-N 6.52 µM | HCT-116 1.34 µM | SW-620 1.16 µM | COLO 205 2.51 µM | A498 6.92 µM | CCRF-CEM 1.28 µM | DMS-114 9.18 µM | RPMI-8226 2.47 µM | DU-145 5.01 µM | U-251 2.73 µM | UACC-62 11 µM | SNB-19 6.61 µM | SF-539 6.44 µM | SNB-78 6.08 µM | EKVX 9.98 µM | NCI/ADR-RES 4.56 µM | NCI-H226 2.51 µM | HOP-62 3.27 µM | LXFL 529 6.61 µM | HCC 2998 1.89 µM | Malme-3M 10.3 µM | HOP-92 4.26 µM | KM-20L2 3.3 µM | Hs-578T 1.41 µM
2.85 µM: HCT-15
